± gives the expanded uncertainty stated by the source.
Conditions: for viscosity / speed of sound / mass density: 102 kPa, Liquid; for viscosity: Concentric cylinders viscometry; for speed of sound: Frequency=3 MHz, Sing-around technique in a fixed-path interferometer; for mass density: Vibrating tube method; for surface tension liquid-gas: Pendant drop shape

Row | Compound | viscosity (293.15 K) [mPa·s] | speed of sound (293.15 K) [m/s] | mass density (293.15 K) [kg/m3] | viscosity (303.15 K) [mPa·s] | speed of sound (303.15 K) [m/s] | mass density (303.15 K) [kg/m3] | viscosity (313.15 K) [mPa·s] | speed of sound (313.15 K) [m/s] | mass density (313.15 K) [kg/m3] | viscosity (323.15 K) [mPa·s] | speed of sound (323.15 K) [m/s] | mass density (323.15 K) [kg/m3] | viscosity (333.15 K) [mPa·s] | speed of sound (333.15 K) [m/s] | mass density (333.15 K) [kg/m3] | viscosity (343.15 K) [mPa·s] | mass density (343.15 K) [kg/m3] | also measured
1 | CCCCc1ccccc1 [butylbenzene] | 1.06 ± 0.01 | 1352.8 ± 1 | 860.6 ± 0.19 | 0.915 ± 0.012 | 1314 ± 1 | 852.56 ± 0.19 | 0.801 ± 0.012 | 1275.8 ± 1 | 844.5 ± 0.19 | 0.708 ± 0.011 | 1238.2 ± 1 | 836.41 ± 0.19 | 0.631 ± 0.011 | 1201.4 ± 1 | 828.29 ± 0.19 | 0.566 ± 0.011 | 820.3 ± 0.5 | surface tension liquid-gas (294.4 K): 28.8 ± 0.3 mN/m
2 | CCCCCCCCCCCCCCCC [hexadecane] | 3.43 ± 0.02 | 1356.4 ± 1 | 773.42 ± 0.32 | 2.72 ± 0.02 | 1319 ± 1 | 766.47 ± 0.32 | 2.2 ± 0.02 | 1282.6 ± 1 | 759.55 ± 0.32 | 1.82 ± 0.01 | 1246.9 ± 1 | 752.63 ± 0.32 | 1.54 ± 0.01 | 1212 ± 1 | 745.71 ± 0.32 | 1.31 ± 0.01 | 738.8 ± 0.9 | surface tension liquid-gas (294 K): 27.2 ± 0.3 mN/m
3 | CCCCCCc1ccccc1 [hexylbenzene] | 1.68 ± 0.01 | 1374.7 ± 1.1 | 857.69 ± 0.7 | 1.41 ± 0.01 | 1337.3 ± 1.1 | 850.09 ± 0.7 | 1.2 ± 0.01 | 1300.5 ± 1.1 | 842.49 ± 0.7 | 1.03 ± 0.01 | 1264.3 ± 1.1 | 834.87 ± 0.7 | 0.901 ± 0.012 | 1228.8 ± 1.1 | 827.48 ± 0.7 | 0.794 ± 0.012 | 819.5 ± 2 | surface tension liquid-gas (294.1 K): 29.4 ± 0.4 mN/m
4 | CCCCC1CCCCC1 [butylcyclohexane] | 1.31 ± 0.01 | 1327.7 ± 1 | 799.33 ± 0.2 | 1.11 ± 0.01 | 1287.9 ± 1 | 791.82 ± 0.2 | 0.961 ± 0.012 | 1248.7 ± 1 | 784.28 ± 0.2 | 0.837 ± 0.012 | 1210.3 ± 1 | 776.7 ± 0.2 | 0.736 ± 0.011 | 1172.6 ± 1 | 769.09 ± 0.2 | 0.653 ± 0.011 | 761.4 ± 0.5 | surface tension liquid-gas (294.5 K): 26.6 ± 0.3 mN/m
5 | CCCCCCCCCCCC [dodecane] | 1.47 ± 0.02 | 1297.3 ± 1.3 | 748.79 ± 1.5 | 1.23 ± 0.01 | 1259.1 ± 1.3 | 741.54 ± 1.5 | 1.05 ± 0.01 | 1221.5 ± 1.3 | 734.25 ± 1.5 | 0.902 ± 0.012 | 1184.4 ± 1.3 | 726.94 ± 1.5 | 0.786 ± 0.012 | 1148 ± 1.3 | 719.59 ± 1.5 | 0.69 ± 0.012 | 712.2 ± 4.3 | surface tension liquid-gas (293.6 K): 25 ± 0.3 mN/m
6 | Cc1ccccc1 [toluene] | – | – | – | – | – | – | – | – | – | – | – | – | – | – | – | – | – | surface tension liquid-gas (293 K): 28.6 ± 0.3 mN/m
